Assay results: patent publication US6737383B1, “Herbicidal oxadiazolidines” (priority 1999, dated 2004)

What was measured:
wheat = assay: Test B pre/postemergence wheat; format: in vivo, Triticum aestivum
How it was run: (§1)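 Herbicidal effect was estimated by eye on a ten-point control scale after plants spent twelve to sixteen days in a greenhouse following soil or foliar treatment. Foliar sprays targeted plants at one to four leaves; all doses were formulated in a non-phytotoxic solvent with surfactant.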

giant foxtail = assay: Test B pre/postemergence giant foxtail; format: in vivo, Setaria faberii
How it was run: as §1

blackgrass = assay: Test B pre/postemergence blackgrass; format: in vivo, Alopecurus myosuroides
How it was run: as §1

purple nutsedge = assay: Test B pre/postemergence purple nutsedge; format: in vivo, Cyperus rotundus
How it was run: as §1

[1] = Preemergence, Rate 62 g/ha, scale of 0 to 10 where 0 is no effect and 10 is complete control
[2] = Preemergence, Rate 250 g/ha, scale 0 to 10, 0 is no effect, 10 is complete control
[3] = Preemergence, Rate 500 g/ha, scale of 0 to 10 where 0 is no effect and 10 is complete control
[4] = Rate 62 g/ha, Postemergence, scale of 0 to 10 where 0 is no effect and 10 is complete control
[5] = Rate 125 g/ha, Postemergence, scale 0 to 10
[6] = Rate 125 g/ha, Preemergence, scale of 0 to 10 where 0 is no effect and 10 is complete control
[7] = Rate 500 g/ha, Postemergence, scale 0 to 10
[8] = Postemergence, Rate 125 g/ha, scale of 0 to 10 where 0 is no effect and 10 is complete control
[9] = Postemergence, Rate 250 g/ha, scale of 0 to 10, 0 is no effect, 10 is complete control
[10] = Postemergence, Rate 500 g/ha, scale of 0 to 10 where 0 is no effect and 10 is complete control
[11] = Preemergence, Rate 62 g/ha, scale 0 to 10 (0 no effect, 10 complete control)
[12] = Preemergence, Rate 125 g/ha, scale of 0 to 10 where 0 is no effect and 10 is complete control
[13] = Postemergence, Rate 62 g/ha, scale of 0 to 10, 0 is no effect, 10 is complete control
[14] = Postemergence, Rate 62 g/ha, scale 0 to 10, 0 is no effect, 10 is complete control
[15] = Postemergence, Rate 250 g/ha, scale 0 to 10, 0 no effect, 10 complete control
[16] = Preemergence, Rate 125 g/ha, scale 0 to 10 (0 no effect, 10 complete control)
[17] = Preemergence, Rate 250 g/ha, scale of 0 to 10 where 0 is no effect and 10 is complete control
[18] = Preemergence, Rate 500 g/ha, scale 0 (no effect) to 10 (complete control)
[19] = Rate 125 g/ha, Postemergence, scale 0 to 10, 0 no effect, 10 complete control
[20] = Rate 500 g/ha, Postemergence, scale 0 to 10, 0 no effect, 10 complete control
[21] = Preemergence, Rate 31 g/ha, visual rating, scale 0 to 10 (0 no effect, 10 complete control)
[22] = Preemergence, Rate 62 g/ha, scale 0 to 10, 0 is no effect, 10 is complete control
[23] = Rate 31 g/ha, Postemergence, scale 0 to 10

CC(C)N(C(=O)n1oc(=O)n(CC=Cc2ccccc2)c1=O)c1ccc(F)cc1 [Compound 210]
Wheat plant response rating (wheat; [1]): 0 | Wheat plant response rating (wheat; [2]): 0 | Plant response rating, Wheat (wheat; [3]): 0 | Wheat plant response rating (wheat; [4]): 0 | Wheat plant response rating (wheat; [5]): 0 | Wheat plant response rating (wheat; [6]): 0 | Plant response rating (0 to 10; 0 is no effect, 10 is complete control), Wheat (wheat; Rate 250 g/ha, Postemergence): 0 | Giant foxtail plant response rating (giant foxtail; [1]): 0 | Giant foxtail plant response rating (giant foxtail; [2]): 3 | Plant response rating, Giant foxtail (giant foxtail; [3]): 5 | Giant foxtail plant response rating (giant foxtail; [4]): 0 | Giant foxtail plant response rating (giant foxtail; [5]): 0 | Giant foxtail plant response rating (giant foxtail; [6]): 0 | Plant response rating (0 to 10; 0 is no effect, 10 is complete control), Giant foxtail (giant foxtail; Rate 250 g/ha, Postemergence): 0 | Giant foxtail plant response rating (giant foxtail; [7]): 0 | Blackgrass plant response rating (blackgrass; [1]): 0 | Blackgrass plant response rating (blackgrass; [2]): 0 | Plant response rating, Blackgrass (blackgrass; [3]): 4 | Blackgrass plant response rating (blackgrass; [4]): 0 | Blackgrass plant response rating (blackgrass; [5]): 0 | Blackgrass plant response rating (blackgrass; [6]): 0 | Plant response rating (0 to 10; 0 is no effect, 10 is complete control), Blackgrass (blackgrass; Rate 250 g/ha, Postemergence): 0 | Blackgrass plant response rating (blackgrass; [7]): 2 | Nutsedge plant response rating (purple nutsedge; [1]): 0 | Nutsedge plant response rating (purple nutsedge; [2]): 0 | Plant response rating, Nutsedge (purple nutsedge; [3]): 0 | Nutsedge plant response rating (purple nutsedge; [4]): 0 | Nutsedge plant response rating (purple nutsedge; [5]): 0 | Nutsedge plant response rating (purple nutsedge; [6]): 0 | Plant response rating (0 to 10; 0 is no effect, 10 is complete control), Nutsedge (purple nutsedge; Rate 250 g/ha, Postemergence): 0 | Nutsedge plant response rating (purple nutsedge; [7]): 0

CC(C)N(C(=O)n1oc(=O)n(CC(=O)C(F)(F)F)c1=O)c1ccc(F)cc1F [Compound 598]
Plant response rating, Wheat (wheat; [8]): 0 | Wheat plant response rating (wheat; [9]): 0 | Plant response rating, Wheat (wheat; [10]): 0 | Wheat plant response rating (wheat; [11]): 0 | Wheat plant response rating (wheat; [12]): 0 | Plant response rating, Wheat (wheat; [3]): 0 | Giant foxtail plant response rating (giant foxtail; [13]): 0 | Plant response rating, Giant foxtail (giant foxtail; [8]): 0 | Giant foxtail plant response rating (giant foxtail; [9]): 0 | Plant response rating, Giant foxtail (giant foxtail; [10]): 0 | Giant foxtail plant response rating (giant foxtail; [11]): 0 | Giant foxtail plant response rating (giant foxtail; [12]): 0 | Plant response rating, Giant foxtail (giant foxtail; [3]): 0 | Blackgrass plant response rating (blackgrass; [13]): 0 | Plant response rating, Blackgrass (blackgrass; [8]): 0 | Blackgrass plant response rating (blackgrass; [9]): 0 | Plant response rating, Blackgrass (blackgrass; [10]): 0 | Blackgrass plant response rating (blackgrass; [11]): 0 | Blackgrass plant response rating (blackgrass; [12]): 0 | Blackgrass plant response rating (0 to 10 scale) (blackgrass; Preemergence, Rate 250 g/ha): 0 | Blackgrass plant response rating (blackgrass; [3]): 0 | Nutsedge plant response rating (purple nutsedge; [13]): 0 | Plant response rating, Nutsedge (purple nutsedge; [8]): 0 | Nutsedge plant response rating (purple nutsedge; [9]): 0 | Plant response rating, Nutsedge (purple nutsedge; [10]): 0 | Nutsedge plant response rating (purple nutsedge; [11]): 0 | Nutsedge plant response rating (purple nutsedge; [12]): 0 | Plant response rating, Nutsedge (purple nutsedge; [3]): 0

Cc1cccc(C(C)C)c1-n1c(=O)on(C(=O)N(c2ccc(F)cc2)C(C)C)c1=O [Compound 65]
Wheat plant response rating (wheat; [14]): 0 | Wheat plant response rating (wheat; [15]): 0 | Wheat plant response rating (wheat; [11]): 0 | Plant response rating, Wheat (wheat; [16]): 0 | Plant response rating, Wheat (wheat; [17]): 0 | Wheat plant response rating (wheat; [18]): 0 | Wheat plant response rating (wheat; [19]): 0 | Wheat plant response rating (wheat; [20]): 0 | Giant foxtail plant response rating (giant foxtail; [14]): 0 | Giant foxtail plant response rating (giant foxtail; [15]): 0 | Giant foxtail plant response rating (giant foxtail; [11]): 3 | Plant response rating, Giant foxtail (giant foxtail; [16]): 4 | Plant response rating, Giant foxtail (giant foxtail; [17]): 4 | Giant foxtail plant response rating (giant foxtail; [18]): 9 | Giant foxtail plant response rating (giant foxtail; [19]): 0 | Giant foxtail plant response rating (giant foxtail; [20]): 0 | Blackgrass plant response rating (blackgrass; [14]): 0 | Blackgrass plant response rating (blackgrass; [15]): 0 | Blackgrass plant response rating (blackgrass; [11]): 0 | Plant response rating, Blackgrass (blackgrass; [16]): 0 | Plant response rating, Blackgrass (blackgrass; [17]): 0 | Blackgrass plant response rating (blackgrass; [18]): 0 | Blackgrass plant response rating (blackgrass; [19]): 0 | Blackgrass plant response rating (blackgrass; [20]): 0 | Nutsedge plant response rating (purple nutsedge; [14]): 0 | Nutsedge plant response rating (purple nutsedge; [15]): 0 | Nutsedge plant response rating (purple nutsedge; [11]): 0 | Plant response rating, Nutsedge (purple nutsedge; [16]): 0 | Plant response rating, Nutsedge (purple nutsedge; [17]): 2 | Nutsedge plant response rating (purple nutsedge; [18]): 3 | Nutsedge plant response rating (purple nutsedge; [19]): 0 | Nutsedge plant response rating (purple nutsedge; [20]): 0

COc1ccccc1-n1c(=O)on(C(=O)N(c2ccc(F)cc2F)C(C)C)c1=O [Compound 31]
Wheat plant response rating (wheat; [14]): 0 | Wheat plant response rating (wheat; [15]): 0 | Wheat plant response rating (wheat; [21]): 0 | Plant response rating, Wheat (wheat; [22]): 0 | Plant response rating, Wheat (wheat; [16]): 0 | Plant response rating, Wheat (wheat; [17]): 0 | Wheat plant response rating (wheat; [19]): 0 | Giant foxtail plant response rating (giant foxtail; [14]): 0 | Giant foxtail plant response rating (giant foxtail; [15]): 4 | Giant foxtail plant response rating (giant foxtail; [21]): 1 | Plant response rating, Giant foxtail (giant foxtail; [22]): 6 | Plant response rating, Giant foxtail (giant foxtail; [16]): 8 | Plant response rating, Giant foxtail (giant foxtail; [17]): 8 | Giant foxtail plant response rating (giant foxtail; [23]): 0 | Giant foxtail plant response rating (giant foxtail; [19]): 0 | Blackgrass plant response rating (blackgrass; [14]): 0 | Blackgrass plant response rating (blackgrass; [15]): 9 | Blackgrass plant response rating (blackgrass; [21]): 0 | Plant response rating, Blackgrass (blackgrass; [22]): 0 | Plant response rating, Blackgrass (blackgrass; [16]): 2 | Plant response rating, Blackgrass (blackgrass; [17]): 2 | Blackgrass plant response rating (blackgrass; [23]): 0 | Blackgrass plant response rating (blackgrass; [19]): 4 | Nutsedge plant response rating (purple nutsedge; [14]): 0 | Nutsedge plant response rating (purple nutsedge; [15]): 0 | Nutsedge plant response rating (purple nutsedge; [21]): 0 | Plant response rating, Nutsedge (purple nutsedge; [22]): 0 | Plant response rating, Nutsedge (purple nutsedge; [16]): 0 | Plant response rating, Nutsedge (purple nutsedge; [17]): 0 | Nutsedge plant response rating (purple nutsedge; [23]): 0 | Nutsedge plant response rating (purple nutsedge; [19]): 0

Cc1cccc(C(C)C)c1-n1c(=O)on(C(=O)N(c2ccc(Cl)cc2)C(C)C)c1=O [Compound 64]
Wheat plant response rating (wheat; [14]): 0 | Wheat plant response rating (wheat; [15]): 0 | Wheat plant response rating (wheat; [11]): 0 | Plant response rating, Wheat (wheat; [16]): 0 | Plant response rating, Wheat (wheat; [17]): 0 | Wheat plant response rating (wheat; [18]): 0 | Wheat plant response rating (wheat; [19]): 0 | Wheat plant response rating (wheat; [20]): 0 | Giant foxtail plant response rating (giant foxtail; [14]): 0 | Giant foxtail plant response rating (giant foxtail; [15]): 0 | Giant foxtail plant response rating (giant foxtail; [11]): 0 | Plant response rating, Giant foxtail (giant foxtail; [16]): 0 | Plant response rating, Giant foxtail (giant foxtail; [17]): 3 | Giant foxtail plant response rating (giant foxtail; [18]): 4 | Giant foxtail plant response rating (giant foxtail; [19]): 0 | Giant foxtail plant response rating (giant foxtail; [20]): 0 | Blackgrass plant response rating (blackgrass; [14]): 0 | Blackgrass plant response rating (blackgrass; [15]): 0 | Blackgrass plant response rating (blackgrass; [11]): 0 | Plant response rating, Blackgrass (blackgrass; [16]): 0 | Plant response rating, Blackgrass (blackgrass; [17]): 0 | Blackgrass plant response rating (blackgrass; [18]): 0 | Blackgrass plant response rating (blackgrass; [19]): 0 | Blackgrass plant response rating (blackgrass; [20]): 0 | Nutsedge plant response rating (purple nutsedge; [14]): 0 | Nutsedge plant response rating (purple nutsedge; [15]): 0 | Nutsedge plant response rating (purple nutsedge; [11]): 0 | Plant response rating, Nutsedge (purple nutsedge; [16]): 0 | Plant response rating, Nutsedge (purple nutsedge; [17]): 0 | Nutsedge plant response rating (purple nutsedge; [19]): 0 | Nutsedge plant response rating (purple nutsedge; [20]): 0

CC(C)N(C(=O)n1oc(=O)n(-c2cccnc2)c1=O)c1ccccc1 [Compound 235]
Wheat plant response rating (wheat; [1]): 0 | Wheat plant response rating (wheat; [17]): 0 | Plant response rating, Wheat (wheat; [3]): 0 | Wheat plant response rating (wheat; [4]): 0 | Wheat plant response rating (wheat; [5]): 0 | Wheat plant response rating (wheat; [6]): 0 | Plant response rating (0 to 10; 0 is no effect, 10 is complete control), Wheat (wheat; Rate 250 g/ha, Postemergence): 0 | Wheat plant response rating (wheat; [20]): 0 | Giant foxtail plant response rating (giant foxtail; [1]): 0 | Giant foxtail plant response rating (giant foxtail; [17]): 0 | Plant response rating, Giant foxtail (giant foxtail; [3]): 0 | Giant foxtail plant response rating (giant foxtail; [4]): 0 | Giant foxtail plant response rating (giant foxtail; [5]): 0 | Giant foxtail plant response rating (giant foxtail; [6]): 0 | Plant response rating (0 to 10; 0 is no effect, 10 is complete control), Giant foxtail (giant foxtail; Rate 250 g/ha, Postemergence): 0 | Giant foxtail plant response rating (giant foxtail; [20]): 0 | Blackgrass plant response rating (blackgrass; [1]): 0 | Blackgrass plant response rating (blackgrass; [17]): 0 | Plant response rating, Blackgrass (blackgrass; [3]): 0 | Blackgrass plant response rating (blackgrass; [4]): 0 | Blackgrass plant response rating (blackgrass; [5]): 0 | Blackgrass plant response rating (blackgrass; [6]): 0 | Plant response rating (0 to 10; 0 is no effect, 10 is complete control), Blackgrass (blackgrass; Rate 250 g/ha, Postemergence): 0 | Blackgrass plant response rating (blackgrass; [20]): 0 | Nutsedge plant response rating (purple nutsedge; [4]): 0 | Nutsedge plant response rating (purple nutsedge; [5]): 0 | Plant response rating (0 to 10; 0 is no effect, 10 is complete control), Nutsedge (purple nutsedge; Rate 250 g/ha, Postemergence): 0 | Nutsedge plant response rating (purple nutsedge; [20]): 0
